Among the data in PubChem BioAssay (NCI) are TGI values, retold here.

Some test systems named below: SK-OV-3 ovarian; A549 NSCLC; HCT-15 colon; HOP-62 NSCLC; SK-MEL-28 melanoma; HCT-116 colon; SN12C renal; OVCAR-5 ovarian; NCI-H226 lung.
What all share (experiment): NCI anticancer screen, dose series, 48 h

Molecules are shown by their SMILES.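 The compound was tested at five concentrations on cells cultured in 96-well plates, with a 48-hour exposure period. The concentration for full growth arrest is given as TGI.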

Turning to `O=C(O)C1=C(C(=O)Nc2ccc(NC(=O)C3=C(C(=O)O)C4C=CC3C4)cc2)C2C=CC1C2`, the TGI with SK-OV-3 ovarian, in the assay with A549 NSCLC, in the assay with HCT-15 colon, with HOP-62 NSCLC, in the assay on SK-MEL-28 melanoma and with HCT-116 colon was greater than 100 µM each time. For the same molecule, the TGI in the assay on SN12C renal and with OVCAR-5 ovarian was greater than 100 µM in each case.

On to `O=[N+]([O-])c1cccc(C2=NOC3C4CCC(C4)C23)c1` (stereo not drawn), for which the TGI in the assay with SK-OV-3 ovarian, in the assay with NCI-H226 lung, in the assay on A549 NSCLC, in the assay on HCT-15 colon, in the assay with HOP-62 NSCLC and in the assay on SK-MEL-28 melanoma was greater than 100 µM throughout. In addition, the TGI with HCT-116 colon, in the assay with SN12C renal and with OVCAR-5 ovarian was greater than 100 µM throughout.

Regarding `Cc1ccccc1-n1c(C)nc(-c2ccccc2)cc1=O`, the TGI in the assay on SK-OV-3 ovarian, with NCI-H226 lung, with A549 NSCLC, in the assay on HCT-15 colon, in the assay with HOP-62 NSCLC and in the assay with SK-MEL-28 melanoma was greater than 100 µM in each case. Besides, the TGI with HCT-116 colon, with SN12C renal and in the assay with OVCAR-5 ovarian was greater than 100 µM each time.

With `O=C1C=CC(CC(=O)c2ccc3ccccc3c2)O1` (stereo not drawn), the TGI was greater than 100 µM with SK-OV-3 ovarian; greater than 100 µM in the assay on A549 NSCLC; 50.4 µM in the assay on HCT-15 colon; 36.6 µM with HOP-62 NSCLC; greater than 100 µM with SK-MEL-28 melanoma; 32.3 µM with HCT-116 colon. Also, the TGI in the assay on SN12C renal turned out to be 36 µM; with OVCAR-5 ovarian, 41.5 µM.

On to `O=C(/C=C1/Nc2ccc([N+](=O)[O-])cc2NC1O)c1cccc([N+](=O)[O-])c1` (stereo not drawn), for which the TGI in the assay on SK-OV-3 ovarian was 57.2 µM; in the assay with NCI-H226 lung it was greater than 100 µM; with A549 NSCLC, greater than 100 µM; with HCT-15 colon, greater than 100 µM; with HOP-62 NSCLC it was greater than 100 µM; in the assay on SK-MEL-28 melanoma, greater than 100 µM. Further, the TGI in the assay on HCT-116 colon and with SN12C renal was greater than 100 µM in each case.

In the case of `CC12Oc3ccc4ccccc4c3CC1Cc1c(ccc3ccccc13)O2` (stereo not drawn), the TGI with NCI-H226 lung, in the assay with A549 NSCLC, in the assay on HOP-62 NSCLC, in the assay on SK-MEL-28 melanoma, in the assay with HCT-116 colon and in the assay on OVCAR-5 ovarian was greater than 100 µM throughout.

For `CCOC(=O)C1=C(Nc2ccc(Cl)c(Cl)c2)OC/C1=N\NS(=O)(=O)c1ccc(C)cc1`, the TGI with SK-OV-3 ovarian, with NCI-H226 lung, in the assay with A549 NSCLC, in the assay with HOP-62 NSCLC, in the assay with SK-MEL-28 melanoma and with HCT-116 colon was greater than 100 µM throughout. Also, the TGI with SN12C renal and with OVCAR-5 ovarian was greater than 100 µM in each case.

Turning to `O=C(CC1C(=O)Nc2ccccc2S1=O)Nc1ccc(Cl)cc1` (stereo not drawn), the TGI with SK-OV-3 ovarian is 63.9 µM; with NCI-H226 lung, greater than 100 µM; with A549 NSCLC, greater than 100 µM; in the assay with HCT-15 colon, greater than 100 µM; in the assay with HOP-62 NSCLC it was greater than 100 µM; in the assay with SK-MEL-28 melanoma, greater than 100 µM. Moreover, the TGI in the assay with SN12C renal and in the assay with OVCAR-5 ovarian was greater than 100 µM each time.

`CN(C)C(=S)/N=c1\ss/c(=N\S(=O)(=O)c2ccccc2)n1N(C)C`: the TGI in the assay with SK-OV-3 ovarian, with NCI-H226 lung, with A549 NSCLC, with HCT-15 colon, with HOP-62 NSCLC and in the assay on SK-MEL-28 melanoma was greater than 100 µM throughout. Further, the TGI with HCT-116 colon and in the assay with SN12C renal was greater than 100 µM throughout.

With `Nn1c(N=Nc2c(O)[nH]c3c(Cl)cc(Cl)cc23)n[nH]c1=S`, the TGI in the assay on SK-OV-3 ovarian, in the assay with NCI-H226 lung, in the assay with A549 NSCLC, in the assay with HCT-15 colon, in the assay with HOP-62 NSCLC and in the assay on HCT-116 colon was greater than 100 µM each time. Also, the TGI with SN12C renal and with OVCAR-5 ovarian was greater than 100 µM in each case.

As to `O=C(NS(=O)(=O)c1ccccc1)C(Cc1ccccc1)C(Cc1ccccc1)C(=O)NS(=O)(=O)c1ccccc1` (stereo not drawn), the TGI with SK-OV-3 ovarian, in the assay on NCI-H226 lung, in the assay with A549 NSCLC, with HOP-62 NSCLC, in the assay on SK-MEL-28 melanoma and in the assay on HCT-116 colon was greater than 100 µM throughout. Also, the TGI in the assay with SN12C renal and with OVCAR-5 ovarian was greater than 100 µM each time.

For the molecule `CN1CC(=O)N(C)c2nc[nH]c2C1=O`, the TGI with SK-OV-3 ovarian, in the assay on NCI-H226 lung, in the assay with A549 NSCLC, in the assay on HCT-15 colon, in the assay on SK-MEL-28 melanoma and in the assay on SN12C renal was greater than 100 µM each time. In addition, the TGI in the assay with OVCAR-5 ovarian was greater than 100 µM.

Take `Cc1cccc(C(C)(C)C)c1NC(=O)CC1Sc2ccccc2NC1=O` (stereo not drawn): the TGI in the assay on SK-OV-3 ovarian is greater than 100 µM; in the assay on NCI-H226 lung, greater than 100 µM; with A549 NSCLC, greater than 100 µM; with HOP-62 NSCLC it was greater than 100 µM; in the assay on SK-MEL-28 melanoma, greater than 100 µM; with HCT-116 colon it was 45.1 µM. Moreover, the TGI in the assay with SN12C renal and in the assay with OVCAR-5 ovarian was greater than 100 µM each time.
